Each compound was assayed against SMYD3 (Homo sapiens (Human), UniProt Q9H7B4) (assay: SMYD3 biochemical assay (SMYD3 enzyme assay on MEKK2 protein substrate, 3H-SAM scintillation proximity assay)). Details: Table 1A; average of n = 1 to n = 50; read-out: SMYD3 Biochem IC50.
Description: S-adenosylmethionine (SAM), S-adenosylhomocysteine (SAH), Tris, Tween20, dimethylsulfoxide (DMSO), bovine skin gelatin (BSG), and Tris(2-carboxyethyl)phosphine hydrochloride solution (TCEP) were purchased from Sigma-Aldrich at the highest level of purity possible. ^3H-SAM was purchase from American Radiolabeled Chemicals with a specific activity of 80 Ci/mmol. 384-well opaque white OptiPlates and SPA beads (Perkin Elmer, catalog # RPNQ0013) were purchased from PerkinElmer.
N-terminally GST-tagged MEKK2 (MAP3K2) protein corresponding to reference sequence AAF63496.3 was purchased from Life Technologies (catalog # PV4010). This protein was expressed in High Five insect cells and purified to >85% purity. Protein identity was confirmed by MS/MS analysis after proteolytic digestion. The protein sequence used was:
Full-length human SMYD3 isoform 1 (BAB86333) was inserted into a modified pET21b plasmid containing a His6 tag and TEV and SUMO cleavage sites.
E. coli (BL21 codonplus RIL strain, Stratagene) were transformed with plasmid pEPZ553 by mixing competent cells and plasmid DNA and incubating on ice for 30 minutes followed by heat shock at 42° C. for 1 minute and cooling on ice for 2 minutes. Transformed cells were grown and selected on LB agar with 100 μg/mL ampicillin and 17 μg/mL chloramphenicol at 37° C. overnight. A single clone was used to inoculate 200 mL of LB medium with 100 μg/mL ampicillin and 17 μg/mL chloramphenicol and incubated at 37° C. on an orbital shaker at 180 rpm. Once in log growth, the culture was diluted 1:100 into 2 L of LB medium and grown until OD600 was about 0.3 after which the culture was incubated at 15° C. and 160 rpm. Once OD600 reached about 0.4, IPTG was added to a final concentration of 0.1 mM and the cells were grown overnight at 15° C. and 160 rpm. Cells were harvested by centrifugation at 8000 rpm, for 4 minutes at 4° C. and stored at −80° C. for purification.
The column was washed with Buffer B (Buffer A plus 20 mM imidazole) and His-tagged SMYD3 was eluted with Buffer C (Buffer A plus 300 mM imidazole). The His tag, TEV and SUMO cleavage sites were removed generating native SMYD3 by addition of ULP1 protein at a ratio of 1:200 (ULP1:SMYD3). Imidazole was removed by dialysis overnight in Buffer A. The dialyzed solution was applied to a second Nickel column and the native SMYD3 protein was collected from the column flow-through. The flow-through was dialyzed in Buffer D (25 mM Tris, 5% glycerol, 5 mM β-mercaptoethanol, 50 mM NaCl, pH7.8) and ULP1 was removed using a Q sepharose fast flow column.
General Procedure for SMYD3 Enzyme Assays on MEKK2 Protein Substrate
The assays were all performed in a buffer consisting of 25 mM Tris-Cl pH 8.0, 1 mM TCEP, 0.005% BSG, and 0.005% Tween 20, prepared on the day of use. […] DMSO (1 ul) was added to Columns 11, 12, 23, 24, rows A-H for the maximum signal control and 1 ul of SAH, a known product and inhibitor of SMYD3, was added to columns 11, 12, 23, 24, rows I-P for the minimum signal control. A cocktail (40 ul) containing the SMYD3 enzyme was added by Multidrop Combi (Thermo-Fisher). The compounds were allowed to incubate with SMYD3 for 30 min at room temperature, then a cocktail (10 ul) containing SAM and MEKK2 was added to initiate the reaction (final volume=51 ul). […] The assays were stopped by the addition of non-radiolabeled SAM (10 ul) to a final concentration of 100 uM, which dilutes the ^3H-SAM to a level where its incorporation into MEKK2 is no longer detectable. Radiolabeled MEKK2 was detected using a scintillation proximity assay (SPA). 10 uL of a 10 mg/mL solution of SPA beads in 0.5 M citric acid was added and the plates centrifuged at 600 rpm for 1 min to precipitate the radiolabeled MEKK2 onto the SPA beads.

Chain of SMYD3 (Q9H7B4 whole entry): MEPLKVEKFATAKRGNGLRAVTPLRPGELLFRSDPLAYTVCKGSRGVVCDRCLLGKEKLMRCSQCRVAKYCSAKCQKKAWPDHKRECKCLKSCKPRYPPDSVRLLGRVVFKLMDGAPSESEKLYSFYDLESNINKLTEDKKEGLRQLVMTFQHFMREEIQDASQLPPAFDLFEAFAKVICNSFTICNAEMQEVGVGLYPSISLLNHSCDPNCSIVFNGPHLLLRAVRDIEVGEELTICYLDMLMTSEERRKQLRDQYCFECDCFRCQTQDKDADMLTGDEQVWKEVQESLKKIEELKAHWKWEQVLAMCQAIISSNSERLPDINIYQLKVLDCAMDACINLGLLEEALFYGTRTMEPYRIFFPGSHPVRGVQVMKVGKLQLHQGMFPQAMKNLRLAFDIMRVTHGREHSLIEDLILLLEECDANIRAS

Row | IC50 [µM] | Structure (SMILES)
1 | > 50 | N[C@H]1CC[C@H](NC(=O)c2n[nH]c(Cl)n2)CC1 [compound 541, N-((1r,4r)-4-aminocyclohexyl)-5-chloro-1H-1,2,4-triazole-3-carboxamide]

Same assay, conditions: read-out: SMYD3 Biochem IC50

Row | Structure (SMILES) | IC50 [µM]
2 | N[C@H]1CC[C@H](NC(=O)Cc2cncnc2)CC1 [compound 365, N-((1r,4r)-4-aminocyclohexyl)-2-(pyrimidin-5-yl)acetamide] | > 100
3 | Cc1nn(C(C)C(=O)NC(C)C2CCN(C(=O)[C@H](C)N)CC2)c(C)c1Br (stereo partly drawn) [compound 216, N-(1-(1-(L-alanyl)piperidin-4-yl)ethyl)-2-(4-bromo-3,5-dimethyl-1H-pyrazol-1-yl)propanamide] | > 100
4 | Nc1ncncc1C(=O)N[C@H]1CC[C@H](N)CC1 [compound 421, 4-amino-N-((1r,4r)-4-aminocyclohexyl)pyrimidine-5-carboxamide] | > 100
5 | Cc1ccc(C(=O)NC(C)C2CCN(C(=O)[C@H](C)N)CC2)cn1 (stereo partly drawn) [compound 257, N-(1-(1-(L-alanyl)piperidin-4-yl)ethyl)-6-methylnicotinamide] | > 100
6 | CC(NC(=O)/C=C/c1c[nH]cn1)C1CCN(C(=O)[C@H](C)N)CC1 (stereo partly drawn) [compound 494, (E)-N-(1-(1-(L-alanyl)piperidin-4-yl)ethyl)-3-(1H-imidazol-4-yl)acrylamide] | > 100
7 | Cn1ccc(C(=O)N[C@H]2CC[C@H](NC(=O)CCN)CC2)n1 [compound 349, N-((1r,4r)-4-(3-aminopropanamido)cyclohexyl)-1-methyl-1H-pyrazole-3-carboxamide] | > 100
8 | CC(=O)Nc1ccc(C(=O)N[C@H]2CC[C@H](N)CC2)nc1 [compound 444, 5-acetamido-N-((1r,4r)-4-aminocyclohexyl)picolinamide] | > 100
9 | COc1cccc2[nH]cc(C(=O)N[C@H]3CC[C@H](NC(=O)CCN)CC3)c12 [compound 371, N-((1r,4r)-4-(3-aminopropanamido)cyclohexyl)-4-methoxy-1H-indole-3-carboxamide] | > 100
10 | CC(NC(=O)c1ccc2nc[nH]c2c1)C1CCN(C(=O)[C@H](C)N)CC1 (stereo partly drawn) [compound 193, N-(1-(1-(L-alanyl)piperidin-4-yl)ethyl)-1H-benzo[d]imidazole-6-carboxamide] | > 100
11 | CC(NC(=O)c1ccc(-n2cnnc2)cc1)C1CCN(C(=O)[C@H](C)N)CC1 (stereo partly drawn) [compound 226, N-(1-(1-(L-alanyl)piperidin-4-yl)ethyl)-4-(4H-1,2,4-triazol-4-yl)benzamide] | > 100

Results, then the compound that gave them:

Row | IC50 [µM] | Structure (SMILES)
12 | > 100 | Cc1cnc(C(=O)N[C@H]2CC[C@H](N)CC2)s1 [compound 398, N-((1r,4r)-4-aminocyclohexyl)-5-methylthiazole-2-carboxamide]
13 | > 100 | CC(NC(=O)c1nccnc1N)C1CCN(C(=O)[C@H](C)N)CC1 (stereo partly drawn) [compound 188, N-(1-(1-(L-alanyl)piperidin-4-yl)ethyl)-3-aminopyrazine-2-carboxamide]
14 | 22 | NCCC(=O)N[C@H]1CC[C@H](NC(=O)c2cc3ccccc3nc2O)CC1 [compound 456, N-((1r,4r)-4-(3-aminopropanamido)cyclohexyl)-2-hydroxyquinoline-3-carboxamide]
15 | > 100 | N[C@H]1CC[C@H](NC(=O)c2ccnc(O)c2)CC1 [compound 292, N-((1r,4r)-4-aminocyclohexyl)-2-hydroxyisonicotinamide]
16 | > 100 | N[C@H]1CC[C@H](NC(=O)c2cnc3ccccc3n2)CC1 [compound 405, N-((1r,4r)-4-aminocyclohexyl)quinoxaline-2-carboxamide]
17 | 42.3 | NC1CCC(NC(=O)c2cccc3c2NC(=O)C3)CC1 (stereo not shown) [compound 506, N-(4-aminocyclohexyl)-2-oxoindoline-7-carboxamide]
18 | > 100 | NCCC(=O)N[C@H]1CC[C@H](NC(=O)c2cccc(F)n2)CC1 [compound 422, N-((1r,4r)-4-(3-aminopropanamido)cyclohexyl)-6-fluoropicolinamide]
19 | > 100 | Cc1nn(C(C)C(=O)N[C@H]2CC[C@H](N)CC2)c(C)c1Br (stereo partly shown) [compound 454, N-((1r,4r)-4-aminocyclohexyl)-2-(4-bromo-3,5-dimethyl-1H-pyrazol-1-yl)propanamide]
20 | 37.7 | Cc1cccc2cc(C(=O)N[C@H]3CC[C@H](NC(=O)CCN)CC3)[nH]c12 [compound 342, N-((1r,4r)-4-(3-aminopropanamido)cyclohexyl)-7-methyl-1H-indole-2-carboxamide]
21 | > 100 | CC(NC(=O)Cn1ccnc1)C1CCN(C(=O)[C@H](C)N)CC1 (stereo partly drawn) [compound 316, N-(1-(1-(L-alanyl)piperidin-4-yl)ethyl)-2-(1H-imidazol-1-yl)acetamide]
22 | 45.6 | CC(NC(=O)[C@H]1C[C@H](O)CN1)C1CCN(C(=O)[C@H](C)N)CC1 (stereo partly drawn) [compound 433, (2R,4S)-N-(1-(1-(L-alanyl)piperidin-4-yl)ethyl)-4-hydroxypyrrolidine-2-carboxamide]
23 | > 50 | NCCC(=O)N[C@H]1CC[C@H](NC(=O)c2cncnc2O)CC1 [compound 510, N-((1r,4r)-4-(3-aminopropanamido)cyclohexyl)-4-hydroxypyrimidine-5-carboxamide]
24 | 29 | NCCC(=O)N[C@H]1CC[C@H](NC(=O)c2ccc3ncsc3c2)CC1 [compound 281, N-((1r,4r)-4-(3-aminopropanamido)cyclohexyl)benzo[d]thiazole-6-carboxamide]
25 | > 50 | Nc1n[nH]c(C(=O)N[C@H]2CC[C@H](N)CC2)n1 [compound 508, 3-amino-N-((1r,4r)-4-aminocyclohexyl)-1H-1,2,4-triazole-5-carboxamide]

Same assay, conditions: read-out: SMYD3 Biochem IC50 (μM)*

Row | IC50 [µM] | Structure (SMILES)
26 | 42.3 | CCOC(=O)C(NC(=O)c1ccc2c(c1)CC(=O)N2)C1CCNCC1 (stereo not shown) [compound 122, ethyl 2-(2-oxoindoline-5-carboxamido)-2-(piperidin-4-yl)acetate]
27 | > 100 | CC(NC(=O)c1ccc2c(c1)OCO2)C1CCN(C(=O)[C@H](C)N)CC1 (stereo partly drawn) [compound 146, N-(1-(1-(L-alanyl)piperidin-4-yl)ethyl)benzo[d][1,3]dioxole-5-carboxamide]
28 | > 100 | N[C@H]1CC[C@H](NC(=O)c2cccnc2)CC1 [compound 143, N-((1r,4r)-4-aminocyclohexyl)nicotinamide]
29 | 76.4 | COc1ccc2cc(C(C)C(=O)N[C@H]3CC[C@H](N)CC3)ccc2c1 (stereo partly shown) [compound 170, N-((1r,4r)-4-aminocyclohexyl)-2-(6-methoxynaphthalen-2-yl)propanamide]
30 | 117 | Cn1nc(N)cc1C(=O)N[C@H]1CC[C@H](N)CC1 [compound 48, 3-amino-N-((1r,4r)-4-aminocyclohexyl)-1-methyl-1H-pyrazole-5-carboxamide]
31 | 2.74 | N[C@@H](Cc1c[nH]c2ccccc12)C(=O)N1CCC(CNC(=O)c2ccc3c(c2)CC(=O)N3)CC1 [compound 103, N-((1-(L-tryptophyl)piperidin-4-yl)methyl)-2-oxoindoline-5-carboxamide]
32 | > 100 | N[C@H]1CC[C@H](NC(=O)c2ccc3nc[nH]c3c2)CC1 [compound 161, N-((1r,4r)-4-aminocyclohexyl)-1H-benzo[d]imidazole-6-carboxamide]
33 | > 100 | CC(=O)Nc1ccc(S(=O)(=O)N2CCC(NC(=O)c3ccncc3)CC2)cc1 [compound 4, N-(1-((4-acetamidophenyl)sulfonyl)piperidin-4-yl)isonicotinamide]
34 | 114 | CCc1ncc(C(=O)Nc2ccc(CN)cc2)s1 [compound 61, N-(4-(aminomethyl)phenyl)-2-ethylthiazole-5-carboxamide]
